Experimental data from ChEMBL document CHEMBL4052645, “Discovery of potent and efficacious pyrrolopyridazines as dual JAK1/3 inhibitors” (Bioorg Med Chem Lett, 2017).

Key:
[1] = tested on: Phosphatidylinositol 4,5-bisphosphate 3-kinase catalytic subunit alpha isoform (Homo sapiens), P42336 [I800L]; assay: Inhibition of human partial length PI3KCA I800L mutant (R108 to N1068 residues) expressed in mammalian expression system assessed as residual activity at 50 nM by Kinomescan method relative to control
[2] = target: Bone morphogenetic protein receptor type-2 (Homo sapiens) (UniProt Q13873); assay: Inhibition of wild-type human partial length BMPR2 (R179 to Q526 residues) expressed in mammalian expression system assessed as residual activity at 50 nM by Kinomescan method relative to control
[3] = target: Serine/threonine-protein kinase D2 (Homo sapiens) (UniProt Q9BZL6); assay: Inhibition of wild-type human partial length PKD2 (A519 to E838 residues) expressed in bacterial expression system assessed as residual activity at 50 nM by Kinomescan method relative to control
[4] = target: Receptor tyrosine-protein kinase erbB-3 (Homo sapiens) (UniProt P21860); assay: Inhibition of wild-type human partial length ERBB3 (G684 to A987 residues) expressed in mammalian expression system assessed as residual activity at 50 nM by Kinomescan method relative to control
[5] = target: Hormonally up-regulated neu tumor-associated kinase (Homo sapiens) (UniProt P57058); assay: Inhibition of wild-type human partial length HUNK (A31 to K354 residues) expressed in bacterial expression system assessed as residual activity at 50 nM by Kinomescan method relative to control
[6] = target: Vascular endothelial growth factor receptor 1 (Homo sapiens) (UniProt P17948); assay: Inhibition of wild-type human partial length FLT1 (R781 to F1239 residues) expressed in bacterial expression system assessed as residual activity at 50 nM by Kinomescan method relative to control
[7] = target: Dual specificity tyrosine-phosphorylation-regulated kinase 1A (Homo sapiens) (UniProt Q13627); assay: Inhibition of wild-type human partial length DYRK1A (H129 to S509 residues) expressed in mammalian expression system assessed as residual activity at 50 nM by Kinomescan method relative to control
[8] = target: Cyclin-dependent kinase-like 3 (Homo sapiens) (UniProt Q8IVW4); assay: Inhibition of wild-type human partial length CDKL3 (M1 to D327 residues) expressed in bacterial expression system assessed as residual activity at 50 nM by Kinomescan method relative to control
[9] = target: MAP kinase-activated protein kinase 2 (Homo sapiens) (UniProt P49137); assay: Inhibition of wild-type human partial length MAPKAPK2 (V48 to D345 residues) expressed in bacterial expression system assessed as residual activity at 50 nM by Kinomescan method relative to control
[10] = target: Testis-specific serine/threonine-protein kinase 1 (Homo sapiens) (UniProt Q9BXA7); assay: Inhibition of wild-type human full length TSSK1B (M1 to Q367 residues) expressed in bacterial expression system assessed as residual activity at 50 nM by Kinomescan method relative to control
[11] = target: RAC-beta serine/threonine-protein kinase (Homo sapiens) (UniProt P31751); assay: Inhibition of wild-type human partial length AKT2 expressed in bacterial expression system assessed as residual activity at 50 nM by Kinomescan method relative to control
[12] = target: Ankyrin repeat and protein kinase domain-containing protein 1 (Homo sapiens) (UniProt Q8NFD2); assay: Inhibition of wild-type human partial length SGK288 (M1 to A305 residues) expressed in mammalian expression system assessed as residual activity at 50 nM by Kinomescan method relative to control
[13] = target: TGF-beta receptor type-2 (Homo sapiens) (UniProt P37173); assay: Inhibition of wild-type human partial length TGFBR2 (I218 to K567 residues) expressed in bacterial expression system assessed as residual activity at 50 nM by Kinomescan method relative to control
[14] = target: Homeodomain-interacting protein kinase 1 (Homo sapiens) (UniProt Q86Z02); assay: Inhibition of wild-type human partial length HIPK1 (M146 to I555 residues) expressed in mammalian expression system assessed as residual activity at 50 nM by Kinomescan method relative to control
[15] = target: LIM domain kinase 1 (Homo sapiens) (UniProt P53667); assay: Inhibition of wild-type human full length LIMK1 (M1 to D647 residues) expressed in bacterial expression system assessed as residual activity at 50 nM by Kinomescan method relative to control
[16] = target: cGMP-dependent protein kinase 2 (Homo sapiens) (UniProt Q13237); assay: Inhibition of wild-type human partial length PKG2 (S422 to F762 residues) expressed in mammalian expression system assessed as residual activity at 50 nM by Kinomescan method relative to control
[17] = target: Ribosomal protein S6 kinase alpha-6 (Homo sapiens) (UniProt Q9UK32); assay: Inhibition of wild-type human partial length C-terminal RSK4 kinase domain 2 (I401 to Y711 residues) expressed in bacterial expression system assessed as residual activity at 50 nM by Kinomescan method relative to control
[18] = target: LIM domain kinase 2 (Homo sapiens) (UniProt P53671); assay: Inhibition of wild-type human full length LIMK2 (M1 to P638 residues) expressed in bacterial expression system assessed as residual activity at 50 nM by Kinomescan method relative to control
[19] = target: Protein-tyrosine kinase 2-beta (Homo sapiens) (UniProt Q14289); assay: Inhibition of wild-type human full length PYK2 (M1 to E967 residues) expressed in bacterial expression system assessed as residual activity at 50 nM by Kinomescan method relative to control
[20] = target: AP2-associated protein kinase 1 (Homo sapiens) (UniProt Q2M2I8); assay: Inhibition of human wild-type AAK1 (G25 to L333 residues) expressed in bacterial expression system assessed as residual activity at 50 nM by Kinomescan method relative to control
[21] = target: Serine/threonine-protein kinase Nek4 (Homo sapiens) (UniProt P51957); assay: Inhibition of wild-type human full length NEK4 (M1 to F841 residues) expressed in mammalian expression system assessed as residual activity at 50 nM by Kinomescan method relative to control
[22] = target: Inhibitor of nuclear factor kappa-B kinase subunit alpha (Homo sapiens) (UniProt O15111); assay: Inhibition of wild-type human full length IKK-alpha (M1 to E745 residues) expressed in mammalian expression system assessed as residual activity at 50 nM by Kinomescan method relative to control
[23] = target: Maternal embryonic leucine zipper kinase (Homo sapiens) (UniProt Q14680); assay: Inhibition of wild-type human full length MELK (M1 to V651 residues) expressed in bacterial expression system assessed as residual activity at 50 nM by Kinomescan method relative to control
[24] = target: Tyrosine-protein kinase Srms (Homo sapiens) (UniProt Q9H3Y6); assay: Inhibition of wild-type human partial length SRMS (L208 to P488 residues) expressed in mammalian expression system assessed as residual activity at 50 nM by Kinomescan method relative to control
[25] = target: Cyclin-dependent kinase-like 5 (Homo sapiens) (UniProt O76039); assay: Inhibition of wild-type human partial length CDKL5 (M1 to S337 residues) expressed in mammalian expression system assessed as residual activity at 50 nM by Kinomescan method relative to control

Hormonally up-regulated neu tumor-associated kinase (Homo sapiens), sequence (P57058 whole entry, the tested form may be a part): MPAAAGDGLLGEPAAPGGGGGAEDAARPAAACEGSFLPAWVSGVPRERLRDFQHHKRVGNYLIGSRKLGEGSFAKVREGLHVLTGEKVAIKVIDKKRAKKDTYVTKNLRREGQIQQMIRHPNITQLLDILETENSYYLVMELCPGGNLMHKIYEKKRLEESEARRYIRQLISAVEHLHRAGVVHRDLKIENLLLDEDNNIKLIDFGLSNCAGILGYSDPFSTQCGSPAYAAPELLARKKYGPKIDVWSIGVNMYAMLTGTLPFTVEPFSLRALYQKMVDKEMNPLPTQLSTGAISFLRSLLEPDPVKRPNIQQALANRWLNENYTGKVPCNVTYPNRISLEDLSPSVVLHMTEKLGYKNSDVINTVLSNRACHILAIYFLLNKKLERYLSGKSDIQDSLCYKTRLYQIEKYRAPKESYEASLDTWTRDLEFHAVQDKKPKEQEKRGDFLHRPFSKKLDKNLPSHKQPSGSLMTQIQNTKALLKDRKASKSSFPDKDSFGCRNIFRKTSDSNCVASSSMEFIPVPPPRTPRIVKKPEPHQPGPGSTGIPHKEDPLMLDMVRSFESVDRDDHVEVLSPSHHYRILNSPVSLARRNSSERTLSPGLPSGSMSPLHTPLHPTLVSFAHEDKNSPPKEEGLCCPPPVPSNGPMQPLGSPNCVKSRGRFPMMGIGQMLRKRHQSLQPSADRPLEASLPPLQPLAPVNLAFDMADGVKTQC
RAC-beta serine/threonine-protein kinase (Homo sapiens), sequence (P31751 whole entry, the tested form may be a part): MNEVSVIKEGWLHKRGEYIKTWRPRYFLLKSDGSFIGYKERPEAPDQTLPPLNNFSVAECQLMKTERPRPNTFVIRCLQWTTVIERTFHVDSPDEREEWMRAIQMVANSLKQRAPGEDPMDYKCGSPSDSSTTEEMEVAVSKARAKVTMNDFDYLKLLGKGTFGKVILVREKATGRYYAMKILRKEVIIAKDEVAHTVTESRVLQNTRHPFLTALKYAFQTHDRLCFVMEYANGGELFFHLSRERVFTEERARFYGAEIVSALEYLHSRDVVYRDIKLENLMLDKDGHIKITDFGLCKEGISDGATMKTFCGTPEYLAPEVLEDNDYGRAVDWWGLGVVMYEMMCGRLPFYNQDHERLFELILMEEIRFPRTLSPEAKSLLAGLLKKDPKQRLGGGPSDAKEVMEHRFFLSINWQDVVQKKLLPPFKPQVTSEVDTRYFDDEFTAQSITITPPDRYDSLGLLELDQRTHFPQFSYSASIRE
Serine/threonine-protein kinase D2 (Homo sapiens), sequence (Q9BZL6 whole entry, the tested form may be a part): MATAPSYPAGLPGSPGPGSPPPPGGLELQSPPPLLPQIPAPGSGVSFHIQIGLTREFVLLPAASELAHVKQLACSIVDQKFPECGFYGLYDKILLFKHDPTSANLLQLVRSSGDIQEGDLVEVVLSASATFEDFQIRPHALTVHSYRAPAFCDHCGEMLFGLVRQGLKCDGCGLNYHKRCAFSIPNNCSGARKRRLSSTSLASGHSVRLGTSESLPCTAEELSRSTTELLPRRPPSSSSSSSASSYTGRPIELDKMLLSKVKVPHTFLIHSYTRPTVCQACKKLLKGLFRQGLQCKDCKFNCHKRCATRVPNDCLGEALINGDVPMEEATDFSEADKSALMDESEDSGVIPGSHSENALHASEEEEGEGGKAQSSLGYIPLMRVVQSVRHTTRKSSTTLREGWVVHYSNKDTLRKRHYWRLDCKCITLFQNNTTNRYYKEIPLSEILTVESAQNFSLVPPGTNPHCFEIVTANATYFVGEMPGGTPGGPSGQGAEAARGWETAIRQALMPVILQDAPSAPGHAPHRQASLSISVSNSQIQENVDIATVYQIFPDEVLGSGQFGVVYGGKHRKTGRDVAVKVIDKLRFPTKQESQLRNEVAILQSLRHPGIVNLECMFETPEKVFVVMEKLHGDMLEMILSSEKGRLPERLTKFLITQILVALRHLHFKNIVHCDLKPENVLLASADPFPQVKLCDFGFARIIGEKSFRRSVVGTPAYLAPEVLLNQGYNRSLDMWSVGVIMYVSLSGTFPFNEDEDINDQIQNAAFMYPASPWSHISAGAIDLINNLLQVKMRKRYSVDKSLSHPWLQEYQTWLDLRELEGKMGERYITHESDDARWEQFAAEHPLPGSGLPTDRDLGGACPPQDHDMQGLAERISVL
Bone morphogenetic protein receptor type-2 (Homo sapiens), sequence (Q13873 whole entry, the tested form may be a part): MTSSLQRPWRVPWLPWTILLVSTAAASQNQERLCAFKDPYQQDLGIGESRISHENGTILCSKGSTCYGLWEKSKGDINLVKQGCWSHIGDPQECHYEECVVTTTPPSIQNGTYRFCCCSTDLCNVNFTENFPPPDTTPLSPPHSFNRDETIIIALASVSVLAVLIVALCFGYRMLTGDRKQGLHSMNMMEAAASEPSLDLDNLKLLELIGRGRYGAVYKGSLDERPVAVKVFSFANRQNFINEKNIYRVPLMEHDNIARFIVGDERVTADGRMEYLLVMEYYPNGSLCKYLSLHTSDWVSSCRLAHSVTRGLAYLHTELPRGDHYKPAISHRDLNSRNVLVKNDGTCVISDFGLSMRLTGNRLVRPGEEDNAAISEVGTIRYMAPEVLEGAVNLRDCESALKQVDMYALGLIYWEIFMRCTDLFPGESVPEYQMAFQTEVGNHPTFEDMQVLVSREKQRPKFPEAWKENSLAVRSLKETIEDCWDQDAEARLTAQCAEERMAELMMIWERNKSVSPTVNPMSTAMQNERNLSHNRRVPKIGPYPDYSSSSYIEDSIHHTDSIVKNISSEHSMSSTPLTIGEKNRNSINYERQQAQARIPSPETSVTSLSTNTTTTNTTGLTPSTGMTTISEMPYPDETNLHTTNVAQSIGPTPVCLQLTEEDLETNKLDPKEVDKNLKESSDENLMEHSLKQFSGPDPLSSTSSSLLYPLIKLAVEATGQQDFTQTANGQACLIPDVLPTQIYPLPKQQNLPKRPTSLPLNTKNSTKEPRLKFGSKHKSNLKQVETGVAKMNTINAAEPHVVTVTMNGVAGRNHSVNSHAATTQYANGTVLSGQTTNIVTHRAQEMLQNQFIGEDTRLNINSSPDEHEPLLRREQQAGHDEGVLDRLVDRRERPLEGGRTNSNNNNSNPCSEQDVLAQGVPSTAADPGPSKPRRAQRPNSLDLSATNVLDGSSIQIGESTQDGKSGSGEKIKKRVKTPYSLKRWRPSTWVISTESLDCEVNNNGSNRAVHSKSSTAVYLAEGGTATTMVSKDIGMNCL
MAP kinase-activated protein kinase 2 (Homo sapiens), sequence (P49137 whole entry, looked up, the tested form may be a part): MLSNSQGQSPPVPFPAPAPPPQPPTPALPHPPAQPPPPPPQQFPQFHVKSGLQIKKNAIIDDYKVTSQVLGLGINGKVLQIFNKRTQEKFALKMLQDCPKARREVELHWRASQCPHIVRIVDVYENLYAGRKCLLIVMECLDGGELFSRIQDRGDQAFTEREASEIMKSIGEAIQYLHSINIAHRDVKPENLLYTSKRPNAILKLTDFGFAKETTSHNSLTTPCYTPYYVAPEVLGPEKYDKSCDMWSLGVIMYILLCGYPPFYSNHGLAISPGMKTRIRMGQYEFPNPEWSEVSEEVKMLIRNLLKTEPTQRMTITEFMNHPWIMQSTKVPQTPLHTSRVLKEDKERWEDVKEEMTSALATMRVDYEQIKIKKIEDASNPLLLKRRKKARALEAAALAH
AP2-associated protein kinase 1 (Homo sapiens), sequence (Q2M2I8 whole entry, looked up, the tested form may be a part): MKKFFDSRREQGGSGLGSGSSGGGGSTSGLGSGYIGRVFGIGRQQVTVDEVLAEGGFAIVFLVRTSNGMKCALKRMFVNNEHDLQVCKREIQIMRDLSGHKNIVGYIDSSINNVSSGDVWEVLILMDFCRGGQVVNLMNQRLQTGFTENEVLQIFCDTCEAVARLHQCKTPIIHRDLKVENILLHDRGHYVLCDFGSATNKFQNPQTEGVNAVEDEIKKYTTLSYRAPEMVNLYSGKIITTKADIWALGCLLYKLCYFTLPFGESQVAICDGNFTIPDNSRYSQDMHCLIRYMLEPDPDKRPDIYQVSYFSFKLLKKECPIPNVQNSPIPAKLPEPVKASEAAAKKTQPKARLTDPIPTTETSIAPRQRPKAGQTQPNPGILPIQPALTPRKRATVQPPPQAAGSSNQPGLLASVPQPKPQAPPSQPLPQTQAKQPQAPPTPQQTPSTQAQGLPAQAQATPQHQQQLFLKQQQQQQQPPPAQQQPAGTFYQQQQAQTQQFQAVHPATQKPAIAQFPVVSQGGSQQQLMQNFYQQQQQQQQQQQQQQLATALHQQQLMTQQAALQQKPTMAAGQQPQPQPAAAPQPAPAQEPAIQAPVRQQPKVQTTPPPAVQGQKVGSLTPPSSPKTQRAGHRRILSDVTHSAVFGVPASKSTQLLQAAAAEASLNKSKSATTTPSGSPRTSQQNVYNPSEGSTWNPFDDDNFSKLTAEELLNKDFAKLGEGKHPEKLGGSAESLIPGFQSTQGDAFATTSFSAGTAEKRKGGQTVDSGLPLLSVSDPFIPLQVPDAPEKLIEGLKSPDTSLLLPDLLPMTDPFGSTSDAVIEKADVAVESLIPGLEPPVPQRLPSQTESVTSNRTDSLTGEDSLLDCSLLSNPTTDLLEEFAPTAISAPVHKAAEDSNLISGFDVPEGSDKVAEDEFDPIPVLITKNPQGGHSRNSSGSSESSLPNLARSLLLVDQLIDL
TGF-beta receptor type-2 (Homo sapiens), sequence (P37173 whole entry, the tested form may be a part): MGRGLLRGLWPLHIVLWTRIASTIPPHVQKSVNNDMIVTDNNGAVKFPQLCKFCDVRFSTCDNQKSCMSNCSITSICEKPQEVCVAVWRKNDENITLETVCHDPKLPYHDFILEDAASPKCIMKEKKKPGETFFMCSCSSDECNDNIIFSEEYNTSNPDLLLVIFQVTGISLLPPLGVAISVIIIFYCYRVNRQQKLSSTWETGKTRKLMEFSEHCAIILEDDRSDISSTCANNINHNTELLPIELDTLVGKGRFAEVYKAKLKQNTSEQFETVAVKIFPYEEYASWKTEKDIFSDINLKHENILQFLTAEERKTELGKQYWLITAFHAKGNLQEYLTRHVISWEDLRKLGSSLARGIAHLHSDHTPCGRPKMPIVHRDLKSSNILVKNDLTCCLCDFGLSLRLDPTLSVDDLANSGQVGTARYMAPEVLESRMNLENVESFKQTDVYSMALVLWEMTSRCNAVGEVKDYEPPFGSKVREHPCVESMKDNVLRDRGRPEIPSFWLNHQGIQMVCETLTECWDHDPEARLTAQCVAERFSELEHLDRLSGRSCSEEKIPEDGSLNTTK

SMILES | Activity [1] [%] | Activity [2] [%] | Activity [3] [%] | Activity [4] [%] | Activity [5] [%] | Activity [6] [%] | Activity [7] [%] | Activity [8] [%] | Activity [9] [%] | Activity [10] [%] | Activity [11] [%] | Activity [12] [%] | Activity [13] [%] | Activity [14] [%] | Activity [15] [%] | Activity [16] [%] | Activity [17] [%] | Activity [18] [%] | Activity [19] [%] | Activity [20] [%] | other results
CC1(C)[C@H](Nc2c(C(N)=O)cnn3cc(-c4ccccc4)cc23)CC[C@]1(C)N | 100 | 93 | 100 | 100 | 65 | 100 | 73 | 100 | 100 | 100 | 100 | 100 | 100 | 100 | 67 | 87 | 50 | 92 | 100 | 63 | Activity [21]: 52%; Activity [22]: 100%; Activity [23]: 79%; Activity [24]: 64%; Activity [25]: 83%
COc1ccc(-c2cc3c(N[C@@H]4CC[C@](C)(N)C4(C)C)c(C(N)=O)cnn3c2)cn1 | 100 | 100 | 100 | 100 | 100 | 90 | 100 | 98 | 100 | 100 | 88 | 100 | 100 | 100 | 100 | 100 | 96 | 100 | 93 | 73 | Activity [21]: 100%; Activity [22]: 87%; Activity [23]: 79%; Activity [24]: 94%; Activity [25]: 90%
